Test results reported in patent publication US9259402B2, “Compounds with (1 E, 6E)-1,7-bis-(3,4-dimethoxyphenyI)-4,4-disubstituted-hepta-1,6-diene-3,5-dione structural scaffold, their biological activity, and uses thereof” (AndroScience Corporation, priority 2007, dated 2016).
Positions count from the first letter of the chain named. Like-named read-outs stand apart in the source and are kept apart here.

Experiments:
[1] = target: T1, Androgen Receptor (AR) protein expression (Homo sapiens, UniProt P10275, T878A); experiment: Western Blot analysis of AR protein expression in LNCaP cells; format: cell-based
T1 sequence (P10275 1-920 T878A): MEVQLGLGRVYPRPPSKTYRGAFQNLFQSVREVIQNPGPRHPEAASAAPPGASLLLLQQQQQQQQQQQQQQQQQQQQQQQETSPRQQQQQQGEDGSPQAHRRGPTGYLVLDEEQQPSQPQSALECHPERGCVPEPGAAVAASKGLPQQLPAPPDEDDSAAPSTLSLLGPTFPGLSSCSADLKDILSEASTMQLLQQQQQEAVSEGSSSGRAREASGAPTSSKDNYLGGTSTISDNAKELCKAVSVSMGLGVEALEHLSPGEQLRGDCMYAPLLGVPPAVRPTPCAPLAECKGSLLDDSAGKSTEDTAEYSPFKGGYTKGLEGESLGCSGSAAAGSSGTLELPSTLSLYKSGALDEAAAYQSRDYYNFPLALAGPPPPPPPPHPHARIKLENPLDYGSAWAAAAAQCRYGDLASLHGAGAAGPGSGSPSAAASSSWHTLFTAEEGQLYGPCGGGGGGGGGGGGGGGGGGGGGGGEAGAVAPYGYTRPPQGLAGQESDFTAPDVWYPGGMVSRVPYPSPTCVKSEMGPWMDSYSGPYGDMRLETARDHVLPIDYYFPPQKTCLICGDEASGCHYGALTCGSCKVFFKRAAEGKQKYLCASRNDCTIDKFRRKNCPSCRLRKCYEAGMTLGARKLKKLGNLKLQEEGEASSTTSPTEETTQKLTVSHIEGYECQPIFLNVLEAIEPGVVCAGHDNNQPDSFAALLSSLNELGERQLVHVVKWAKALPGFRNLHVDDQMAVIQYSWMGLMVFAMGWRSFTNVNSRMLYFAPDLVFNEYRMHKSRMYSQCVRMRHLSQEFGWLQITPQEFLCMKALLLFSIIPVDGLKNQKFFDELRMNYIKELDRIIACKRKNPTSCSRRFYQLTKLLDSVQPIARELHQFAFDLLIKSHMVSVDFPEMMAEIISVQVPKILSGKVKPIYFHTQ

[2] = target: T2, Androgen Receptor (AR) protein expression (Homo sapiens, UniProt P10275, H875Y, form not given); experiment: Western Blot analysis of AR protein expression in CWR22Rv1 cells; conditions: for IC50: read-out: Reduction of AR expression IC50 (μM) 24 h, Western blotting, 24 h post-incubation
T2 sequence (P10275 1-920 H875Y): T1 sequence (P10275 1-920 T878A) with H875Y, A878T

[3] = test system: CWR22Rv1 cells (human prostate cancer); experiment: MTT cell growth assay, CWR22Rv1 cells; format: cell-based; conditions: 5 days, read-out: Inhibition of Tumor cells growth IC50
Experimental: The MTT cell proliferation assay was applied in the present invention to detect the capability of compounds to suppress or inhibit prostate cancer cells growth. […] Briefly, 1×10^3 LNCaP or CWR22Rv1 cells suspended in complete medium were plated into each well of a 96-well Microtest III tissue culture plate (Falcon, N.J.). Two days later, the medium was replaced with RPMI-1640 medium containing 10% charcoal/dextran-deprived FBS (hormone-deprived fetal bovine serum). Testing compounds were added to the medium at indicated concentrations with or without 1 nM DHT and cells were cultured for 5 days in an incubator (at 37° C.). MTT substrate solution (5 mg/ml in PBS) in 1/10 of volume was added to the cells in each well at 2 hours before harvesting. After 2 hour incubation, the plates were centrifuged (10 min at 1,000 rpm) and the supernatant from each well was carefully removed. A 100 μl of lysis buffer (50% dimethyl formamide, 5% sodium dodecyl sulphate, 0.35 M acetic acid, and 50 mM HCl) was added to each well to lyse the cells and dissolved tetrazolium in each well. The relative quantity of enzyme activity from each well was measured based on absorbance read at a wavelength of 450 nm using a Bio-RAD BenchMark microplate reader. Data derived from the MTT assay were also verified by the actual cell count and cell morphology on a separate plate set up in parallel.
For inhibition of tumor cell growth, in vitro, cells were growth in the presence of testing compounds for 5 days, and the cell growth was assayed by standard MTT assay.

[4] = Stability in acidic condition (0.1 N HCl, 37° C.); format: physicochemical
Excerpt: (§1) Also, at 24 hr where stability of JM49 was only 4%, while its derivative Compound 6 had improved to 79%. Similar improvements in stability (from 6-24 hr) were also observed in the conditions of rat plasma (Table 4) and human plasma (Table 5).

Stability in rat plasma = format: in vitro ADME; conditions: 37° C.
Excerpt: as §1

[5] = Stability in human plasma; format: in vitro ADME; conditions: 37° C.
Excerpt: as §1

AR protein = target: T3, AR protein (Homo sapiens, UniProt P10275, T878A); experiment: Cycloheximide chasing assay of AR degradation in LNCaP cells; format: cell-based; conditions: in the presence of cycloheximide (CHX)
T3 sequence (P10275 1-920 T878A): T1 sequence (P10275 1-920 T878A)
Experimental: AR protein “degradation” in prostate cancer cells was measured by using cycloheximide (a protein synthesis inhibitor) chasing assay method. Briefly, LNCaP cells were incubated with testing ASC compound at the designated concentrations for 24 hours. Subsequently, cycloheximide was added to the cells at a concentration of 15 μg/ml to block new protein synthesis. After incubation, cells were harvested at designated time periods and the resultant change in AR protein levels were analysed using Western Blot analysis as described above.

COc1ccc(/C=C/C(=O)C(F)(CC2CCC2)C(=O)/C=C/c2ccc(OC)c(OC)c2)cc1OC [Compound 14]
melting point: 98 to 100 °C

COc1ccc(/C=C/C(=O)C(F)(CC2CC2)C(=O)/C=C/c2ccc(OC)c(OC)c2)cc1OC [Compound 13]
melting point: 104 to 105 °C

COc1ccc(/C=C/C(=O)C(C(=O)/C=C/c2ccc(OC)c(OC)c2)=C(O)/C=C/c2ccc(OC)c(OC)c2)cc1OC [ASC-JM4]
Reduction of AR expression (Western Blot, in words) [1]: capable of reducing endogenous AR expression | Reduction of AR expression (Western Blot, in words) [2]: capable of reducing endogenous AR expression

COc1ccc(/C=C/C(=O)C(C)(CC2CCC2)C(=O)/C=C/c2ccc(OC)c(OC)c2)cc1OC [Compound 2]
melting point: 161 to 162 °C

COc1ccc(/C=C/C(=O)C(F)(CC(=O)N(C)C)C(=O)/C=C/c2ccc(OC)c(OC)c2)cc1OC [Compound 18]
IC50 ([3]; Homo sapiens, 120 h): > 7.5 µM

CCCCC(F)(C(=O)C=Cc1ccc(OC)c(OC)c1)C(=O)C=Cc1ccc(OC)c(OC)c1 (centres unmarked) [Compound 19]
IC50 [3]: 4.7 µM | IC50 [2]: > 5 µM

COc1ccc(C=CC(=O)C(CC2CCCC2)=C(O)C=Cc2ccc(OC)c(OC)c2)cc1OC [Compound 3]
IC50 [2]: 2.8 µM

COc1ccc(/C=C/C(=O)C(CC(=O)N(C)C)=C(O)/C=C/c2ccc(OC)c(OC)c2)cc1OC [JM77]
Concentration change (%) in acidic condition ([4]; 0 h): 100% | Concentration change (%) in acidic condition ([4]; 1 h): 14% | Concentration change (%) in acidic condition ([4]; 2 h): 8% | Concentration change (%) in acidic condition ([4]; 6 h): 0% | Concentration change (%) in acidic condition ([4]; 24 h): 0% | Concentration change (%) in rat plasma (Stability in rat plasma; 0 h): 100% | Concentration change (%) in rat plasma (Stability in rat plasma; 1 h): 93% | Concentration change (%) in rat plasma (Stability in rat plasma; 2 h): 88% | Concentration change (%) in rat plasma (Stability in rat plasma; 6 h): 73% | Concentration change (%) in rat plasma (Stability in rat plasma; 24 h): 27% | Concentration change (%) in rat plasma (Stability in rat plasma; 48 h): 7% | Concentration change (%) in human plasma ([5]; 0 h): 100% | Concentration change (%) in human plasma ([5]; 1 h): 88% | Concentration change (%) in human plasma ([5]; 2 h): 76% | Concentration change (%) in human plasma ([5]; 6 h): 45% | Concentration change (%) in human plasma ([5]; 24 h): 11% | Concentration change (%) in human plasma ([5]; 48 h): 1%

COc1ccc(/C=C/C(=O)C(C)(CC2CC2)C(=O)/C=C/c2ccc(OC)c(OC)c2)cc1OC [Compound 1]
IC50 ([3]; Homo sapiens, 120 h): 2.4 µM

COc1ccc(/C=C/C(=O)C2CC(c3ccc(OC)c(OC)c3)(C(C(=O)/C=C/c3ccc(OC)c(OC)c3)C(=O)/C=C/c3ccc(OC)c(OC)c3)CC2=O)cc1OC (centres unmarked) [ASC-JM5]
AR protein degradation (Western Blot, in words) (AR protein): enhances AR protein degradation

CCOC(=O)CCC(=O)C=Cc1ccc(O)c(OC)c1 [Monomer 6, 6-(4-Hydroxy-3-methoxy-phenyl)-4-oxo-hex-5-enoic acid ethyl ester]
melting point: 55 to 56 °C

COc1ccc(C=CC(=O)C=C(O)C=Cc2ccc(OC)c(OC)c2)cc1OC [ASC-J9 ®, 1,7-Bis-(3,4-dimethoxy-phenyl)-5-hydroxy-hepta-1,4,6-trien-3-one, reference compound]
AR protein degradation (Western Blot, in words) (AR protein): enhances AR protein degradation

COc1ccc(/C=C/C(=O)C(C)(CC(=O)N(C)C)C(=O)/C=C/c2ccc(OC)c(OC)c2)cc1OC [Compound 7]
Concentration change (%) in acidic condition ([4]; 0 h): 100% | Concentration change (%) in acidic condition ([4]; 1 h): 99% | Concentration change (%) in acidic condition ([4]; 2 h): 99% | Concentration change (%) in acidic condition ([4]; 4 h): 98% | Concentration change (%) in acidic condition ([4]; 24 h): 81% | Concentration change (%) in acidic condition ([4]; 48 h): 58% | Concentration change (%) in human plasma ([5]; 6 h): 95% | Concentration change (%) in human plasma ([5]; 24 h): 71% | Concentration change (%) in human plasma ([5]; 48 h): 49%

CCN(CC)C(=O)CC(C)(C(=O)/C=C/c1ccc(OC)c(OC)c1)C(=O)/C=C/c1ccc(OC)c(OC)c1 [Compound 6]
Concentration change (%) in acidic condition ([4]; 0 h): 100% | Concentration change (%) in acidic condition ([4]; 2 h): 100% | Concentration change (%) in acidic condition ([4]; 4 h): 99% | Concentration change (%) in acidic condition ([4]; 24 h): 79% | Concentration change (%) in acidic condition ([4]; 48 h): 56% | Concentration change (%) in human plasma ([5]; 0 h): 100% | Concentration change (%) in human plasma ([5]; 6 h): 91% | Concentration change (%) in human plasma ([5]; 24 h): 54% | Concentration change (%) in human plasma ([5]; 48 h): 27%

COc1ccc(/C=C/C(=O)C(C)(CC2CCCCC2)C(=O)/C=C/c2ccc(OC)c(OC)c2)cc1OC [Compound 5]
IC50 ([3]; Homo sapiens, 120 h): 4.6 µM | melting point: 128 to 129 °C
